Results as given in article PMC10439028, “SGLT5 is the renal transporter for 1,5-anhydroglucitol, a major player in two rare forms of neutropenia” (Cellular and Molecular Life Sciences: CMLS, 2023).
Residue numbers refer to the chain shown, from its start.

What was measured:
hSGLT5 Asn96Ile = target: T1, hSGLT5 Asn96Ile (Homo sapiens, UniProt A0PJK1, N96I); test: Inhibition of 10 µM 1,5-AG transport by SGLT5 variant Asn96Ile; assay type: cell-based; settings: mutation Asn96Ile versus SGLT5, Fig. 5D
T1 construct: pUB83-hSGLT5-iso2 as well as the various SGLT5 mutants obtained were used to transduce HEK293T cells; expressed in transfected cells; host or cells: HEK293T, lentiviral transduction (pUB83)
T1 sequence (A0PJK1 1-596 N96I): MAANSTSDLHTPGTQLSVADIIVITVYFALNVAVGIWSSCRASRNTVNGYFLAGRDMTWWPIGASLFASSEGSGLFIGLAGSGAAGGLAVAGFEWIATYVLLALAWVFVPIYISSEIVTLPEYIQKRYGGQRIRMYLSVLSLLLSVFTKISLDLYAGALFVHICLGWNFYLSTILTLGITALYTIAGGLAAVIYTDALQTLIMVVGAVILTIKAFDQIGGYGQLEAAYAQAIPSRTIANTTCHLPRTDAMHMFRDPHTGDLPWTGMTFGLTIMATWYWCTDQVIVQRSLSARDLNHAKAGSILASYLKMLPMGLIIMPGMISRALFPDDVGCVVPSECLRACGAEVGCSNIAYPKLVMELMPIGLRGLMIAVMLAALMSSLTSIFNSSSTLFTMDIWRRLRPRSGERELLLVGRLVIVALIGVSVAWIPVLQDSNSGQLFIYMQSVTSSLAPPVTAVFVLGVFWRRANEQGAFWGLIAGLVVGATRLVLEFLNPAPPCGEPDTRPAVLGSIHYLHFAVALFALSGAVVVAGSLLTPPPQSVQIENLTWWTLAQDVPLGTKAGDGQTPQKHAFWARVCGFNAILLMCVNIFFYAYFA
Procedure: The transport experiments to study the specificity of SGLT4 or SGLT5, were performed in the presence of 10 µM U-[^14C + ^12C]-mannose (for SGLT4) or 2-[^3H + ^1H]-1,5-AG (for SGLT5) and increasing concentrations of various sugars tested. The transport experiments to study the inhibition of empagliflozin, dapagliflozin or remogliflozin, on the transport of 1,5-AG by SGLT5 or its variants were performed in the presence of 10 µM 2-[^3H + ^1H]-1,5-AG and increasing concentrations of the various gliflozins tested.
SGLT5 mutants were created using the quick-change site directed mutagenesis method that enables effective mutagenesis without subcloning of the amplified PCR products. Complementary primer pairs carrying the desired replacements (Supplementary Table 3) were designed using an online tool (https://www.agilent.com/store/primerDesignProgram.jsp). The PCR protocol was carried out following the manufacturer instructions regarding the KOD HOT Start polymerase kit (TOYOBO™, Novagen). The amplified DNA was cleaned-up from the reactions constituents using the GeneJET PCR purification Kit (Thermo Scientific™) and the size of the DNA fragment were verified by DNA agarose-gel electrophoresis. […]

hSGLT5 Arg401His = target: T2, hSGLT5 Arg401His (Homo sapiens, UniProt A0PJK1, R401H); test: 1,5-AG uptake in HEK293T cells overexpressing SGLT5 variant Arg401His; assay type: cell-based
T2 construct: pUB83-hSGLT5-iso2 as well as the various SGLT5 mutants obtained were used to transduce HEK293T cells; expressed in transfected cells; host or cells: HEK293T, lentiviral transduction (pUB83)
T2 sequence (A0PJK1 1-596 R401H): T1 sequence (A0PJK1 1-596 N96I) with I96N, R401H
Procedure: For a typical transporter experiment we proceeded as follows. […] To minimize cell loss during the various washing steps in the radioactive uptake experiments, the wells where the cells were seeded were previously coated with poly- D-lysine, which improved their adhesion to the plastic surface of the wells. For this, each well of the 24-well plates was treated with 200 µl of a 0.01% poly-L-lysine solution for 10 min, washed 3 times with 1 ml of sterilized water and left to dry for 2 h. Only then could the 24-well plates be seeded with the appropriate cell lines and cultured overnight at 37 °C in 5% CO2.
On day two, the radioactive uptake assay could be performed. The cell culture media was removed by aspiration and cells were incubated for 20 min at 37 °C and 5% CO2 with a basal medium (10 mM HEPES, pH 7.4, 1 mM CaCl2, 1 mM MgCl2, 2 mM KCl) containing 140 mM choline chloride to deplete intracellular Na^2+ ions. […]
Once the uptake medium was added to the cells, the plates were incubated at 37 °C in 5% CO2 during the required time. […] In each experiment, the transport activities were calculated after subtracting a “blank” value, corresponding to the radioactivity in the appropriate control cells (HEK293T cells that were stably or transiently transfected with one of the parent plasmids pEF6/MycHisA, pEF6HisB, pUB82 or pUB83 with no inserted cDNA) that were analyzed in parallel. […]

For `OC[C@H]1O[C@@H](c2ccc(Cl)c(Cc3ccc(O[C@H]4CCOC4)cc3)c2)[C@H](O)[C@@H](O)[C@@H]1O` [empagliflozin], the “effect of mutation on inhibition exerted by empagliflozin” value (hSGLT5 Asn96Ile) was “considerably decreased (by more than tenfold)”.

`OC[C@H]1OC[C@H](O)[C@@H](O)[C@@H]1O` [1,5-AG, 1,5-anhydroglucitol] was tested, and the Vmax (hSGLT5 Arg401His) was 11.4 ± 0.2 pmol/min/10^5cells and the “reduction of transport efficiency compared to SGLT5” value (hSGLT5 Arg401His) was “twofold”.
